Laboratory results taken from paper PMC5884906, “Single Administration of HBK-15—a Triple 5-HT1A, 5-HT7, and 5-HT3 Receptor Antagonist—Reverses Depressive-Like Behaviors in Mouse Model of Depression Induced by Corticosterone” (Molecular Neurobiology, 2017).
Values joined by “and” are separate entries in the source; they are usually repeats but may differ in a detail not shown here. Equal entries are not always repeated.

Tests used:
[1] = test system: corticosterone-treated mice; assay: forced swim test, chronic administration, corticosterone model; format: in vivo; conditions: for effect on corticosterone-induced increase in immobility: 21 days
Procedure: The dose and route of administration of corticosterone was based on studies performed by Zhao and colleagues. Thirty minutes before, corticosterone injection mice were given (i.p.) saline, HBK-14 (1.25 or 2.5 mg/kg), HBK-15 (0.625 or 1.25 mg/kg), or fluoxetine (10 mg/kg) (Fig. 1b). Control mice received (i.p.) saline and 30 min later saline containing 0.1% dimethyl sulfoxide (DMSO) and 0.1% Tween-80 (s.c.). The experimental groups consisted of eight randomly selected animals. After the end of the procedure, animals were tested in the sucrose preference test, forced swim test, elevated plus maze test, and spontaneous locomotor activity test. Following behavioral testing, rodents were scarified and their hippocampi collected for biochemical analysis. Forced swim test was performed according to the method described by Porsolt and colleagues and previously described. Mice were placed individually for 6 min in glass cylinders (height 25 cm, diameter 10 cm) containing […] (23–25 °C). The total time of immobility was recorded during the final 4 min of the test. The experiments were recorded and scored using aLab.io software by a trained observer blind to the treatments.

[2] = test system: corticosterone-treated mice; assay: elevated plus maze, chronic administration, corticosterone model; format: in vivo
Procedure: The doses and route of administration of the studied compounds were based on our previous experiments. […] Mice were injected with corticosterone (s.c., 20 mg/kg) at random times during the light phase for 21 consecutive days (Fig. 1b). The dose and route of administration of corticosterone was based on studies performed by Zhao and colleagues. Thirty minutes before, corticosterone injection mice were given (i.p.) saline, HBK-14 (1.25 or 2.5 mg/kg), HBK-15 (0.625 or 1.25 mg/kg), or fluoxetine (10 mg/kg) (Fig. 1b). Control mice received (i.p.) saline and 30 min later saline containing 0.1% dimethyl sulfoxide (DMSO) and 0.1% Tween-80 (s.c.). The experimental groups consisted of eight randomly selected animals. After the end of the procedure, animals were tested in the sucrose preference test, forced swim test, elevated plus maze test, and spontaneous locomotor activity test. Following behavioral testing, rodents were scarified and their hippocampi collected for biochemical analysis. The elevated plus maze was performed according to the method previously described. […] Each mouse was individually placed at the central field of the apparatus with the head turned toward one of the closed arms. […] The device was disinfected with 70% ethanol after each mouse. The number of entries to open and closed arms and time spent in the open and closed arms were measured. The experiments were recorded and scored using aLab.io software by a trained observer blind to the treatments.

[3] = test system: BDNF level in the hippocampus; assay: BDNF level in the hippocampus (ELISA), chronic administration; format: in vivo, mice; conditions: for effect on corticosterone-induced decrease in BDNF level in the hippocampus: 21 days
Procedure: (§1) The doses and route of administration of the studied compounds were based on our previous experiments. […] Mice were injected with corticosterone (s.c., 20 mg/kg) at random times during the light phase for 21 consecutive days (Fig. 1b). The dose and route of administration of corticosterone was based on studies performed by Zhao and colleagues. Thirty minutes before, corticosterone injection mice were given (i.p.) saline, HBK-14 (1.25 or 2.5 mg/kg), HBK-15 (0.625 or 1.25 mg/kg), or fluoxetine (10 mg/kg) (Fig. 1b). Control mice received (i.p.) saline and 30 min later saline containing 0.1% dimethyl sulfoxide (DMSO) and 0.1% Tween-80 (s.c.). The experimental groups consisted of eight randomly selected animals. After the end of the procedure, animals were tested in the sucrose preference test, forced swim test, elevated plus maze test, and spontaneous locomotor activity test. Following behavioral testing, rodents were scarified and their hippocampi collected for biochemical analysis. After the behavioral assessments, mice were sacrificed, and their brains were rapidly removed and chilled in an ice-cold saline solution. The hippocampi were dissected on a cold plate, frozen, and stored at −80 °C until assay. On the day of experiments, tissues were thawed on ice and homogenized (1:9 w/v) in phosphate-buffered saline (4 °C) and protease inhibitor cocktail was added. The 10% homogenates were prepared and homogenized for 30 s with TissueRuptor homogenizer. The homogenized tissues were centrifuged (2500×g at 4 °C for 20 min), and the supernatants were collected for further assays. Protein concentrations of BDNF and NGF in homogenates from hippocampi were determined using the enzyme-linked immunosorbent assay (ELISA) kits (BDNF: DZE201020014, SunRed Biotechnology Company; NGF: MBS825100, MyBioSource) according to the manufacturer’s instructions. […] The samples were analyzed in duplicates, and the mean concentrations were calculated. […] The intensity of the color was read at 450 nm. Absorbance was measured in a multifunction plate reader (POLARstar Omega, BMG Labtech, Germany). […]

[4] = test system: NGF level in the hippocampus; assay: NGF level in the hippocampus (ELISA), chronic administration; format: in vivo, mice; conditions: for effect on corticosterone-induced decrease in NGF level in the hippocampus: 21 days
Procedure: as §1

[5] = test system: corticosterone-treated mice; assay: spontaneous locomotor activity, single administration; format: in vivo; conditions: 4 min
Procedure: Mice were injected with corticosterone (s.c., 20 mg/kg) at random times during the light phase for consecutive 21 days (Fig. 1c). The dose and route of administration of corticosterone were based on studies performed by Zhao and colleagues. […] Control mice received (i.p.) saline. The experimental groups consisted of eight randomly selected animals. We chose the dose of HBK-15 that was active in the chronic experiments (i.e., 1.25 mg/kg). The dose of ketamine was based on the studies performed by Pazini and colleagues. Animals were tested in the forced swim test and spontaneous locomotor activity test. After behavioral testing, mice were scarified and their hippocampi collected for biochemical analysis.
The locomotor activity was performed as previously described. Locomotor activity was recorded individually for each mouse using activity cages made of clear Perspex (40 cm × 40 cm × 31 cm, Activity Cage 7441, Ugo Basile, Italy). The cages were supplied with I.R. horizontal beam emitters connected to a counter for the recording of light-beam interruptions. Each mouse was placed in a cage for a 30-min habituation period. After that time, the number of crossings of photobeams was measured for 6 min (chronic studies) or for 4 min (acute experiments; i.e., the time equal to the observation period in the forced swim test). The cages were disinfected with 70% ethanol after each mouse.

[6] = corticosterone 20 mg/kg s.c. 21 days + saline

For `COc1ccccc1N1CCN(CCOCCOc2c(C)cccc2C)CC1.Cl` [HBK-14, 1-[(2,6-Dimethylphenoxy)ethoxyethyl]-4-(2-methoxyphenyl)piperazine hydrochloride], the “effect on corticosterone-induced increase in immobility” value ([1]; 1.25 or 2.5 mg/kg i.p.) was “inactive”, the “effect on corticosterone-induced decrease in number of open arm entries” value ([2]; 2.5 mg/kg i.p., 21 days) was “prevented the decreases” and the “effect on corticosterone-induced decrease in time spent in the open arms” value ([2]; 2.5 mg/kg i.p., 21 days) was “prevented the decreases in the time spent in the open arms”. For the same compound, the “number of open arms entries compared with fluoxetine” value ([2]; 2.5 mg/kg i.p., 21 days, vs fluoxetine 10 mg/kg) was “significantly increased”.
With `COc1ccccc1N1CCN(CCOCCOc2c(C)cccc2Cl)CC1.Cl` [HBK-15, 1-[(2-chloro-6-methylphenoxy)ethoxyethyl]-4-(2-methoxyphenyl)piperazine hydrochloride] the “effect on corticosterone-induced increase in immobility” value ([1]; 1.25 mg/kg i.p.) was “prevented an increase in immobility”, the “effect on corticosterone-induced decrease in number of open arm entries” value ([2]; 2.5 mg/kg i.p., 21 days) was “prevented the decreases” and the “effect on corticosterone-induced decrease in time spent in the open arms” value ([2]; 2.5 mg/kg i.p., 21 days) was “prevented the decreases in the time spent in the open arms”. The “effect on corticosterone-induced decrease in BDNF level in the hippocampus” value ([3]; 1.25 mg/kg i.p.) was “protected corticosterone-treated mice from the decrease in the BDNF level”, the “effect on corticosterone-induced decrease in NGF level in the hippocampus” value ([4]; 1.25 mg/kg i.p.) was “protected corticosterone-treated mice from the decrease in the NGF level” and the “Number of crossings ± S.E.M” value ([5]; single 1.25 mg/kg i.p. in corticosterone-treated mice) was 245.3 ± 22.5.
With `C[C@]12C[C@H](O)[C@H]3[C@@H](CCC4=CC(=O)CC[C@@]43C)[C@@H]1CC[C@@H]2C(=O)CO` [corticosterone] the “increase in immobility vs control” value [1, 6] was 14% and 21%, the “decrease in open arm entries vs control” value [2, 6] was 56% and 48% and the “decrease in time spent in the open arms vs control” value [2, 6] was 48%. For the same compound, the “decrease in BDNF level in the hippocampus vs control” value [3, 6] was 44.0%, the “decrease in NGF level in the hippocampus vs control” value [4, 6] was 35% and the “Number of crossings ± S.E.M” value [5, 6] was 230.7 ± 15.8.
With `CNCCC(Oc1ccc(C(F)(F)F)cc1)c1ccccc1` (stereo not shown) [fluoxetine, reference compound] the “effect on corticosterone-induced increase in immobility” value ([1]; 10 mg/kg i.p.) was “prevented an increase in immobility”, the “effect on corticosterone-induced decrease in number of open arm entries” value ([2]; 10 mg/kg i.p., 21 days) was “prevented the decreases” and the “effect on corticosterone-induced decrease in time spent in the open arms” value ([2]; 10 mg/kg i.p., 21 days) was “prevented the decreases in the time spent in the open arms”. The “effect on corticosterone-induced decrease in BDNF level in the hippocampus” value ([3]; 10 mg/kg i.p.) was “protected corticosterone-treated mice from the decrease in the BDNF level”, the “effect on corticosterone-induced decrease in NGF level in the hippocampus” value ([4]; 10 mg/kg i.p.) was “protected corticosterone-treated mice from the decrease in the NGF level” and the “Number of crossings ± S.E.M” value ([5]; single i.p. in corticosterone-treated mice) was 231.9 ± 21.9.
